What was measured:
[1] = Geller-Seifter procedure (anxiolytic conflict test in rats); type: in vivo; details: Rattus norvegicus, po, 1 h, 60 min before testing, read-out: increase in responding in the `conflict` session (percentage increase in square root of total lever presses in FR5); for change in vivo at 20 mg/kg: 20 mg/kg p.o.
Description: Potential anxiolytic properties have been evaluated using the Geller-Seifter procedure based on that originally described by Geller and Seifter (1960) Psychopharmacologia, 1, 482-492.
Rats are trained on a variable interval 30 sec schedule (VI30) to press a lever in order to obtain food reward. The 3 min sessions of the VI30 schedule alternate with 3 min of a schedule (FR5) in which every 5th lever press is followed by a presentation of a food pellet paired with a 0.2 sec mild footshock. The amplitude of the shock is adjusted for each rat to give equivalent response rates. The total study consists of VI and FR components and lasts 30 mins. Rats typically respond with high rates of lever pressing under the VI30 schedule and low response rats under the FR5 `conflict` session. Anxiolytic drugs increase the suppressed response rates of rats in `conflict` sessions.
The compound is administered intraperitoneally or orally to groups of 6-16 rats 30 min (intraperitoneal route) or 60 min (oral route) before testing.
The results are expressed as the percentage increase in square root of the total number of lever presses in the FR5 `conflict` sessions. Square root transformation is necessary to normalise the data for statistical analysis using parametric methods. A change in the square root of the VI can indicate non-specific drug effects i.e. stimulation or sedation.

[2] = target: site on or near the Cl^- channel portion of the GABAA /BDZ/Cl^- channel complex; assay: [^35 S]-TBPS binding to rat cerebral cortex membranes in vitro; details: 2 nM [^35 S]-TBPS, pH 7.1, 25° C.
Description: [^35 S]-TBPS binding to rat cerebral cortex membranes in vitro
[^35 S]-TBPS labels a site on or near the Cl^- channel portion of the GABAA /BDZ/Cl^- channel complex. Literature studies have shown that [^35 S]-TBPS binding is directly related to the permeability of the Cl^- channel (e.g. Concas et al, 1988).
Modulation of [^35 S]-TBPS binding is measured by a method similar to that of Gee et al (1986).
Pooled rat cerebral cortices were homogenised in 20 volumes of 0.32M sucrose and centrifuged at 1000 g for 20 minutes (4° C.). The supernatant was removed and recentrifuged at 50,000 g (4° C., 20 mins). The P2 pellet was then suspended in 20 volumes of Tris citrate buffer (pH 7.1) and centrifuged at 50,000 g (4° C., 20 mins). This washing step was repeated three times and the pellet finally resuspended in 20 volumes of buffer and stored at -70° C. prior to use.
[…] Non-specific binding was measured in the presence of 10^-4 M picrotoxin. Varying concentrations of test drugs 10^-7, 10^-6, 10^-5 and 10^-4 M final concentration)were added in a volume of 50 μl. The total assay volume was 500 μl. Incubation was stopped by rapid filtration using a Skatron cell harvester and radioactivity measured by liquid scintillation spectrometry. IC50 's were calculated as the concentration of test drug to inhibit 50% of specific binding. Concas A. et al, (1988) J. Neurochem. 51(6), 1868-1876. Gee K. W. et al, (1986) Mol. Pharmacol. 30, 218-225.

Row | IC50 ([2]; done in the presence of GABA) [nM] | IC50 ([2]; done in the absence of GABA) [nM] | Structure (SMILES) | change in vivo at 20 mg/kg [1] [%] | change in vivo at 100 mg/kg ([1]; 100 mg/kg p.o.) [%]
1 | – | – | CC1CC(=O)c2c(nc3c(c2N)c2ccccc2n3C)C1 (racemic) [Example E10, (±) 11-Amino-3,6-dimethyl-1,2,3,4-tetrahydro-6H-quinindolin-1-one] | 17 | –
2 | 1200 | – | CC1CCc2nc3c(c(N)c2C1=O)c1ccccc1n3C (racemic) [Example E11, (±) 11-Amino-2,6-dimethyl-1,2,3,4-tetrahydro-6H-quinindolin-1-one] | 52 | –
3 | 1400 | – | CCC1CCc2nc3c(c(N)c2C1=O)c1ccccc1n3C (racemic) [Example E12, (±) 11-Amino-2-ethyl-6-methyl-1,2,3,4-tetrahydro-6H-quinindolin-1-one] | 33 | –
4 | 1000 | – | C#CCC1CCc2nc3c(c(N)c2C1=O)c1ccccc1n3C (racemic) [Example E14, (±) 11-Amino-6-methyl-2-(2-propynyl)-1,2,3,4-tetrahydro-6H-quinindolin-1-one] | – | –
5 | 3800 | – | CC1CC(C)c2nc3c(c(N)c2C1=O)c1ccccc1n3C (racemic) [Example E15, (±) 11-Amino-1,2,3,4-tetrahydro-2,4,6-trimethyl-6H-quinindolin-1-one] | – | –
6 | – | – | Nc1c2c(nc3[nH]c4ccccc4c13)CCCC2=O [Example E1, 11-Amino-1,2,3,4-tetrahydro-6H-quinindolin-1-one] | 16 | –
7 | – | – | Cn1c2ccccc2c2c(N)c3c(nc21)CCCC3=O [Example E4, 11-Amino-6-methyl-1,2,3,4-tetrahydro-6H-quinindolin-1-one] | 29 | –
8 | – | 7500 | CCn1c2ccccc2c2c(N)c3c(nc21)CCCC3=O [Example E5, 11-Amino-6-ethyl-1,2,3,4-tetrahydro-6H-quinindolin-1-one] | 29 | –
9 | – | 3800 | CCCn1c2ccccc2c2c(N)c3c(nc21)CCCC3=O [Example E6, 11-Amino-6-n-propyl-1,2,3,4-tetrahydro-6H-quinindolin-1-one] | 17 | –
10 | 1900 | – | C=CCn1c2ccccc2c2c(N)c3c(nc21)CCCC3=O [Example E7, 11-Amino-6-(2-propenyl)-1,2,3,4-tetrahydro-6H-quinindolin-1-one] | 16 | –
11 | – | 4400 | Cn1c2ccccc2c2c(N)c3c(nc21)CC(C)(C)CC3=O [Example E8, 11-Amino-1,2,3,4-tetrahydro-3,3,6-trimethyl-6H-quinindolin-1-one] | – | –
12 | 1700 | – | Cn1c2ccccc2c2c(N)c3c(nc21)CCC(C)(C)C3=O [Example E13, 11-Amino-1,2,3,4-tetrahydro-2,2,6-trimethyl-6H-quinindolin-1-one] | 21 | –
13 | 3300 | – | Cn1c2ccccc2c2c(N)c3c(nc21)CCCCC3=O [Example E16, 12-Amino-7-methyl-cyclohepta[5,6]pyrido[2,3-b]indol-1-one] | 11 | –
14 | – | – | Cn1c2ccccc2c2c(N)c3c(nc21)CCC3=O [Example E17, 10-Amino-5-methyl-cyclopenta[5,6]pyrido[2,3-b]indol-1-one] | – | 37

Source: patent publication US5079246A, “Novel indoloquinlones” (Beacham Group p. l. c., priority 1988, dated 1992)
